The format of this data set is physicochemical. Particulars: for t90 (time required for 10% destruction of erythromycin activity): 25° C.; for t50 (time required for 50% destruction of erythromycin activity): water. On the procedure:
To evaluate the feasibility of a single, non-enteric coated preparation containing erythromycin, the times required for 50% destruction of erythromycin activity t50) and 10% destruction of erythromycin activity t90) in aqueous solution at 25° C. were calculated as a function of pH from data reported in the literature.

The source of these data is patent US4863741A, “Tablet composition for drug combinations” (Abbott Laboratories, priority 1989, dated 1989).

Like-named read-outs stand apart in the source and are kept apart here.

Turning to `CC[C@H]1OC(=O)[C@H](C)[C@@H](O[C@H]2C[C@@](C)(OC)[C@@H](O)[C@H](C)O2)[C@H](C)[C@@H](O[C@@H]2O[C@H](C)C[C@H](N(C)C)[C@H]2O)[C@](C)(O)C[C@@H](C)C(=O)[C@H](C)[C@@H](O)[C@]1(C)O` [erythromycin], the “t90 (time required for 10% destruction of erythromycin activity)” value is 1.52 min (pH 3.0, aqueous solution); 528 min (pH 3.5, aqueous solution); 15.2 min (pH 4.0, aqueous solution); 52.8 min (pH 4.5, aqueous solution); 152 min (pH 5.0, aqueous solution); 528 min (pH 5.5, aqueous solution). For the same compound, the “t90 (time required for 10% destruction of erythromycin activity)” value (pH 6.0, aqueous solution) worked out at 1530 min. Also, the “t50 (time required for 50% destruction of erythromycin activity)” value is 0.167 h (pH 3); 0.578 h (pH 3.5); 1.67 h (pH 4); 5.79 h (pH 4.5); 16.7 h (pH 5); 57.8 h (pH 5.5). Further, the “t50 (time required for 50% destruction of erythromycin activity)” value (pH 6) came to 167 h.
